In paper PMC7504088, ““Clicking” an Ionic Liquid to a Potent Antimicrobial Peptide: On the Route towards Improved Stability” (International Journal of Molecular Sciences, 2020):
Marks after values point to notes of the source that are not given here. Ends that are not written are not given here. Peptide text beside a SMILES is read from it. * marks the point of attachment. X1 = C[n+]1ccn(Cc2cn(CC(=O)*)nn2)c1

Legend:
[1] = tested on: HaCaT human epidermal keratinocytes; assay type: cell-based; conditions: 24 h
Procedure: (§1) Since this type of IL-AMP conjugate is being developed for its potential interest to address infected skin lesions, a preliminary assessment of the toxicity of both the conjugate and the parent peptide towards HaCaT human epidermal keratinocytes was carried out by the 3-(4,5-dimethylthiazol-2-yl)-2,5-diphenyltetrazolium bromide (MTT) assay, as previously described by us. […] This activity was assessed in two different ways: (i) inhibition of biofilm formation, and (ii) effect on a preformed biofilm. For evaluation of the inhibition of biofilm formation, both conjugate and parent peptide were tested at MIC and sub-inhibitory concentrations (½×MIC and at ¼×MIC) following previously established procedures, and the mass of biofilm formed at these concentrations was assessed through the crystal violet assay. […] Relevantly, the absorbance measured for the control (absence of test compounds) provides confirmation that the bacterial strain used is a good biofilm producer.
The cytotoxicity of peptides to HaCat cells was evaluated using the standard MTT assay. Briefly, cells were seeded at a density of 4 × 10^4 cells/mL, respectively, in 96-well plates and incubated at 37 °C in a 5% CO2 atmosphere. […] Absorbance was read at 570 nm in FlexStation®3 Multi-Mode Microplate Reader (Molecular Devices, San Jose, CA, USA).

[2] = tested on: preformed biofilms of KP010 (MDR clinical isolate of K. pneumoniae); experiment: Effect on preformed biofilms, OD600 of planktonic phase; assay type: cell-based, Klebsiella pneumoniae; conditions: 20×MIC, 24 h at 37 °C, untreated biofilms 0.740 ± 0.047, mean ± SD of three independent experiments in triplicate
Procedure: Biofilm proliferation was determined by measuring the optical density (OD) of the planktonic phase of the biofilms, both treated with the test compounds and the untreated control. […] This improvement, afforded by the insertion of the imidazolium motif, is in line with previous reports of enhanced antibacterial activity when combining imidazolium ILs with non-peptide antibiotics, like ampicillin, including against resistant bacterial strains.
To assess the effects of test compounds on 48 h preformed biofilms of KP010, the biofilms were first grown in TSB from a starting inoculum of 1 × 10^6 CFU/mL in 96-well microtiter plates. After 48 h of incubation at 37 °C, the planktonic cells were removed, and the wells were rinsed and filled with the test compound at a 20× MIC concentration. The optical density at 600 nm was measured at time 0 and after incubation for 24 h at 37 °C. The reduction in the biofilm proliferation was calculated in comparison to the respective non-treated biofilms. Three independent experiments were performed in triplicate.

[3] = tested on: E. coli EC001 (MDR clinical isolate); assay type: cell-based, Escherichia coli
Procedure: (§2) Both the conjugate MeIm-3.1-PP4 and its parent peptide 3.1-PP4 were next screened for their antibacterial activity. Minimum inhibitory concentration (MIC) values were determined following the Clinical and Laboratory Standards Institute (CLSI) protocol, against Gram-positive (Staphylococcus aureus and Enterococcus faecalis), and Gram-negative (Pseudomonas aeruginosa, Escherichia coli and Klebsiella pneumoniae) bacteria, including both reference strains (American Type Culture Collection, ATCC), and multidrug-resistant (MDR) clinical isolates. […] Relevantly, in most cases, MIC values matched the minimum bactericidal concentration (MBC) values, highlighting a bactericidal action for both MeIm-3.1-PP4 and its parent peptide.
(§3) The MIC of the test compounds was determined according to the CLSI guidelines. Briefly, the compounds were tested in the 1–1024 µg/mL concentration range, using the microdilution method in cation-adjusted Mueller-Hinton broth (MHB II) against reference strains of P. aeruginosa ATCC 27853, E. coli ATCC 25922, S. aureus ATCC 25923, and Enterococcus faecalis ATCC 29212. MIC values were also determined against MDR clinical isolates (antibiotic resistance patterns given in Supplementary Materials, Table S1) of P. aeruginosa (PA004, Pa3, Pa4), E. coli (Ec2, EC001, EC002, EC003), K. pneumoniae (KP004, KP010), S. aureus (SA007), and Enterococcus faecalis (Ef1). Along with the MIC values, MBC values were also determined as previously reported.

[4] = tested on: E. coli EC002 (MDR clinical isolate); assay type: cell-based, Escherichia coli
Procedure: as §2, §3

[5] = tested on: E. coli Ec2 (MDR clinical isolate); assay type: cell-based, Escherichia coli
Procedure: as §2, §3

E. coli ATCC 25922 = assay type: cell-based, Escherichia coli
Procedure: as §2, §3

[6] = tested on: E. coli EC003 (MDR clinical isolate); assay type: cell-based, Escherichia coli
Procedure: as §2, §3

P. aeruginosa ATCC 27853 = assay type: cell-based, Pseudomonas aeruginosa
Procedure: as §2, §3

[7] = tested on: P. aeruginosa PA004 (MDR clinical isolate); assay type: cell-based, Pseudomonas aeruginosa
Procedure: as §2, §3

[8] = tested on: P. aeruginosa Pa4 (MDR clinical isolate); assay type: cell-based, Pseudomonas aeruginosa
Procedure: as §2, §3

[9] = tested on: P. aeruginosa Pa3 (MDR clinical isolate); assay type: cell-based, Pseudomonas aeruginosa
Procedure: as §2, §3

[10] = tested on: Enterococcus faecalis Ef1 (MDR clinical isolate); assay type: cell-based
Procedure: as §2, §3

[11] = tested on: Enterococcus faecalis ATCC 29212; assay type: cell-based
Procedure: as §2, §3

[12] = tested on: K. pneumoniae KP010 biofilms; experiment: Inhibition of biofilm formation, crystal violet assay; assay type: cell-based, Klebsiella pneumoniae; conditions: KP010, TSB, crystal violet absorbance at 595 nm, three independent experiments in triplicate
Procedure: as §1
The ability of the test compounds to inhibit the biofilm formation by KP010 (a MDR clinical isolate of K. pneumoniae) was assessed at the respective MIC, ^1/2×MIC and ^1/4×MIC values in tryptic soy broth (TSB) using the crystal violet assay as previously reported. […]
Figure 1 Effects of 3.1-PP4 and MeIm-3.1-PP4 on formation of K. pneumoniae KP010 biofilms (biomass quantification by crystal violet absorbance at 595 nm). […]

tyrosinase = experiment: in vitro; assay type: in vitro ADME; conditions: mushroom (Agaricus bisporus), isolated enzyme, pH 6.8
Description: One of our main motivations to explore IL-peptide conjugates concerns improving the enzymatic stability of the peptide moiety, as poor pharmacokinetics is a major obstacle towards clinical translation of AMP and other bioactive peptides, even when topical applications are envisaged. For instance, in a non-healing infected wound, peptides are vulnerable to modification by endogenous (e.g., tyrosinase, elastase, metalloproteinases) and exogenous (produced by colonizing microbes) enzymes in the wound site. […] The samples were collected at different time points, for 24 h, and were analyzed by HPLC. […]
The IL-peptide conjugate and the parent peptide were both incubated at a final concentration of 10 mM in phosphate buffer (pH 6.8), with the enzyme tyrosinase (CAS:9002-10-2; T3824-250KU) at 18 U/mL, for 24 h at 37 °C. […] The supernatant was then analyzed by HPLC, using a Hitachi-Merck LaChrom Elite system with a reverse-phase C18 column (125 × […] and 5 µm pore size). […]
Results from peptide stability were expressed as the variation of the % of starting compound over time (mean ± SD). Data were analyzed in GraphPad Prism 8.0.1 Software using two-way analysis of variance (ANOVA) followed by Tukey’s multiple comparison test. […]

[13] = tested on: S. aureus SA007 (MDR clinical isolate); assay type: cell-based, Staphylococcus aureus
Procedure: as §2, §3

S. aureus ATCC 25923 = assay type: cell-based, Staphylococcus aureus
Procedure: as §2, §3

[14] = tested on: K. pneumoniae KP004 (MDR clinical isolate); assay type: cell-based, Klebsiella pneumoniae
Procedure: as §2, §3

[15] = tested on: K. pneumoniae KP010 (MDR clinical isolate); assay type: cell-based, Klebsiella pneumoniae
Procedure: as §2, §3

| Compound | IC50 [1] [µM] | OD600 of planktonic phase of peptide-treated biofilms [2] | MIC [3] | MIC [4] | MIC [5] | MIC (E. coli ATCC 25922) | MIC [6] | MIC (P. aeruginosa ATCC 27853) | MIC [7] | MIC [8] | MIC [9] | MIC [10] | MIC [11] | biofilm formed at MIC ([12]; at MIC) | biofilm biomass formed at sub-inhibitory concentrations ([12]; at ½×MIC and ¼×MIC) | remaining at 24 h, 10 mM (tyrosinase) [%] | MIC [13] | MIC (S. aureus ATCC 25923) | MIC [14] | MIC [15] |
| --- | --- | --- | --- | --- | --- | --- | --- | --- | --- | --- | --- | --- | --- | --- | --- | --- | --- | --- | --- | --- |
| CC(C)C[C@H](NC(=O)[C@H](CCCCN)NC(=O)[C@H](CCCCN)NC(=O)Cn1cc(Cn2cc[n+](C)c2)nn1)C(=O)N[C@@H](CC(C)C)C(=O)N[C@@H](CCCCN)C(=O)N[C@@H](Cc1c[nH]c2ccccc12)C(=O)N[C@@H](CC(C)C)C(=O)N[C@@H](CC(C)C)C(=O)N[C@@H](CCCCN)C(=O)N[C@@H](CC(C)C)C(=O)N[C@@H](CC(C)C)C(=O)N[C@@H](CCCCN)C(=O)N[C@H](C(=O)N[C@H](C(=O)N[C@@H](CCCCN)C(=O)N[C@@H](CO)C(N)=O)[C@@H](C)O)[C@@H](C)O [MeIm-3.1-PP4] (X1-KKLLKWLLKLLKTTKS-NH2) | 19.4 ± 0.2 | 0.497± 0.050 | 3.1 (1.4) μg/mL | 1.5 (0.7) μg/mL | 1.5 (0.7) μg/mL | 0.8 (0.4) μg/mL | 1.5 (0.7) μg/mL | 1.5 (0.7) μg/mL | 3.1 (1.4) μg/mL | 0.8 (0.4) μg/mL | 1.5 (0.7) μg/mL | 3.1 (1.4) μg/mL | 99.3 (46.3) μg/mL | only a little amount of biofilm was formed | lower than the control | ~84 | 12.4 (5.8) μg/mL | 24.8 (11.6) ^a μg/mL | 49.6 (23.1) μg/mL | 6.2 (2.9) μg/mL |
| KKLLKWLLKLLKTTKS-NH2 [3.1-PP4] | 34.2 ± 0.5 | – | 1.3 (0.7) μg/mL | 1.3 (0.7) μg/mL | 1.3 (0.7) μg/mL | 1.3 (0.7) μg/mL | 0.6 (0.3) μg/mL | 2.3 (1.2) μg/mL | 1.3 (0.7) μg/mL | 1.3 (0.7) μg/mL | 1.3 (0.7) μg/mL | 2.3 (1.2) ^a μg/mL | 41.3 (21.3) μg/mL | – | – | – | 10.3 (5.3) μg/mL | 10.3 (5.3) ^a μg/mL | 2.3 (1.2) μg/mL | 2.3 (1.2) μg/mL |
